Structures can show the parent of a compound that is named as a salt.

The IC50 is the point on the concentration scale where inhibition reaches its midpoint.

The first test addresses T1, SYK (Homo sapiens, UniProt P43405).
T1 construct: Recombinant proteins SYK FL was produced at NMS via baculo virus infection in insect cells; His; GST; made in house; host or cells: insect cells (baculovirus)
The test can be described thus: Biochemical kinase inhibition assay on SYK, ADPGlo assay format. Particulars: Table A, pre-activated SYK 0.6 nM, ATP 60 μM, BioDBn*327 125 μM, 60 minutes at room temperature. On the technique in general: ADP-Glo turns the ADP formed in a reaction into a luminescent signal.
Consider `COc1cc(F)cc(Nc2nccc(-c3cc(C(=O)N[C@@H](C)CN4CCC4)n(C)n3)n2)c1` [Example 48, N-[(2S)-1-(azetidin-1-yl)propan-2-yl]-3-{2-[(3-fluoro-5-methoxyphenyl)amino]pyrimidin-4-yl}-1-methyl-1H-pyrazole-5-carboxamide], for which the IC50 amounted to 0.023 µM.

The target in the next test is T1, SYK. The test is described as follows: Biochemical kinase inhibition assay on SYK, KinaseGlo assay format. The note with it: Table A; KinaseGlo format, pre-activated SYK 2.5 nM, ATP 2.5 μM, substrate BioDBn*327 125 uM, 60 minutes at rt; read-out: IC50 (μM) Kglo. On the technique in general: Kinase-Glo measures the ATP left after a reaction by luminescence.
For `COc1cc(F)cc(Nc2nccc(-c3cc(C(=O)N[C@@H](C)CN4CCC4)n(C)n3)n2)c1` [Example 48, N-[(2S)-1-(azetidin-1-yl)propan-2-yl]-3-{2-[(3-fluoro-5-methoxyphenyl)amino]pyrimidin-4-yl}-1-methyl-1H-pyrazole-5-carboxamide], the IC50 is 0.006 µM. For the compound `COc1cc(Nc2nccc(-c3cc(C(=O)N[C@@H](C)C(=O)N(C)C)n(C)n3)n2)cc(OC)c1` [Example 71, 3-{2-[(3,5-dimethoxyphenyl)amino]pyrimidin-4-yl}-N-[(2S)-1-(dimethylamino)-1-oxopropan-2-yl]-1-methyl-1H-pyrazole-5-carboxamide], the IC50 was 0.452 µM. Same read-out and setting: as for `Cc1cc(C)cc(Nc2nccc(-c3cc(C(=O)N4CC[C@@H](O)C4)n(C)n3)n2)c1` [Example 85, (3-{2-[(3,5-dimethylphenyl)amino]pyrimidin-4-yl}-1-methyl-1H-pyrazol-5-yl)[(3R)-3-hydroxypyrrolidin-1-yl]methanone], the figure is 0.209 µM; as for `Cc1cc(C)cc(Nc2nccc(-c3cc(C(=O)N4CC[C@H](N(C)C)C4)n(C)n3)n2)c1` [Example 86, [(3S)-3-(dimethylamino)pyrrolidin-1-yl](3-{2-[(3,5-dimethylphenyl)amino]pyrimidin-4-yl}-1-methyl-1H-pyrazol-5-yl)methanone], 0.471 µM. Consider `Cc1cc(C)cc(Nc2nccc(-c3cc(C(=O)N4CCC(N)C4)n(C)n3)n2)c1` (stereo not shown) [Example 88, (3-aminopyrrolidin-1-yl)(3-{2-[(3,5-dimethylphenyl)amino]pyrimidin-4-yl}-1-methyl-1H-pyrazol-5-yl)methanone], for which the IC50 was 0.051 µM. Consider `Cc1cc(C)cc(Nc2nccc(-c3cc(C(=O)N4CCC[C@H]4CO)n(C)n3)n2)c1` [Example 89, (3-{2-[(3,5-dimethylphenyl)amino]pyrimidin-4-yl}-1-methyl-1H-pyrazol-5-yl)[(2S)-2-(hydroxymethyl)pyrrolidin-1-yl]methanone], for which the IC50 is 0.219 µM. For the compound `Cc1cc(C)cc(Nc2nccc(-c3cc(C(=O)N4CC[C@H](O)C4)n(C)n3)n2)c1` [Example 90, (3-{2-[(3,5-dimethylphenyl)amino]pyrimidin-4-yl}-1-methyl-1H-pyrazol-5-yl)[(3S)-3-hydroxypyrrolidin-1-yl]methanone], the IC50 amounted to 0.156 µM. Same read-out and setting: as for `Cc1cc(C)cc(Nc2nccc(-c3cc(C(=O)N[C@@H]4CCCC[C@@H]4O)n(C)n3)n2)c1` [Example 91, 3-{2-[(3,5-dimethylphenyl)amino]pyrimidin-4-yl}-N-[(1R,2S)-2-hydroxycyclohexyl]-1-methyl-1H-pyrazole-5-carboxamide], the figure is 0.035 µM; as for `Cc1c(C)n(C)c2ccc(Nc3nccc(-c4cc(C(=O)N[C@@H](C)CO)n(C)n4)n3)cc12` [Example 93, N-[(2S)-1-hydroxypropan-2-yl]-1-methyl-3-{2-[(1,2,3-trimethyl-1H-indol-5-yl)amino]pyrimidin-4-yl}-1H-pyrazole-5-carboxamide], 0.137 µM; as for `Cc1cc(C)cc(Nc2nccc(-c3cc(C(=O)N4C[C@H]5C[C@H]4CN5)n(C)n3)n2)c1` [Example 96, (1S,4R)-2,5-diazabicyclo[2.2.1]hept-2-yl(3-{2-[(3,5-dimethylphenyl)amino]pyrimidin-4-yl}-1-methyl-1H-pyrazol-5-yl)methanone hydrochloride], 0.07 µM. `Cn1nc(-c2ccnc(Nc3cc(Cl)cc(Cl)c3)n2)cc1C(=O)N[C@H]1CCCC[C@H]1N` [Example 99, N-[(1S,2R)-2-aminocyclohexyl]-3-{2-[(3,5-dichlorophenyl)amino]pyrimidin-4-yl}-1-methyl-1H-pyrazole-5-carboxamide hydrochloride]: the IC50 is 0.011 µM. Regarding `COc1cc(Nc2nccc(-c3cc(C(=O)N[C@H]4CCCC[C@H]4N)n(C)n3)n2)cc(OC)c1` [Example 100, N-[(1S,2R)-2-aminocyclohexyl]-3-{2-[(3,5-dimethoxyphenyl)amino]pyrimidin-4-yl}-1-methyl-1H-pyrazole-5-carboxamide hydrochloride], the IC50 was determined as 0.011 µM. With `Cc1cc(C)cc(Nc2nccc(-c3cc(C(=O)N[C@H]4CCCC[C@H]4N)[nH]n3)n2)c1` [Example 104, N-[(1S,2R)-2-aminocyclohexyl]-3-{2-[(3,5-dimethylphenyl)amino]pyrimidin-4-yl}-1H-pyrazole-5-carboxamide hydrochloride], the IC50 was below 0.004 µM. Regarding `Cc1cc(C)cc(Nc2nccc(-c3cc(C(=O)N[C@H](CN4CCC4)C(C)C)[nH]n3)n2)c1` [Example 105, N-[(2S)-1-(azetidin-1-yl)-3-methylbutan-2-yl]-3-{2-[(3,5-dimethylphenyl)amino]pyrimidin-4-yl}-1H-pyrazole-5-carboxamide], the IC50 was determined as 0.012 µM. Turning to `Cc1cc(C)cc(Nc2nccc(-c3cc(C(=O)N[C@H](CN4CCCC4)c4ccccc4)n(C)n3)n2)c1` [Example 107, 3-{2-[(3,5-dimethylphenyl)amino]pyrimidin-4-yl}-1-methyl-N-[(1S)-1-phenyl-2-(pyrrolidin-1-yl)ethyl]-1H-pyrazole-5-carboxamide], the IC50 stood at 0.026 µM.

For the compound `C[C@@H](CO)NC(=O)c1cc(-c2ccnc(Nc3ccc(N4CCN(C)CC4)c(Cl)c3)n2)nn1C` [Example 110, 3-(2-{[3-chloro-4-(4-methylpiperazin-1-yl)phenyl]amino}pyrimidin-4-yl)-N-[(2S)-1-hydroxypropan-2-yl]-1-methyl-1H-pyrazole-5-carboxamide], the IC50 was found to be 0.452 µM. With `CC(C)[C@@H](CO)NC(=O)c1cc(-c2ccnc(Nc3ccc(N4CCN(C)CC4)c(Cl)c3)n2)nn1C` [Example 111, 3-(2-{[3-chloro-4-(4-methylpiperazin-1-yl)phenyl]amino}pyrimidin-4-yl)-N-[(2S)-1-hydroxy-3-methylbutan-2-yl]-1-methyl-1H-pyrazole-5-carboxamide], the IC50 was 0.144 µM. On to `Cc1cccc(Nc2nccc(-c3cc(C(=O)N[C@H](CN4CCCC4)C(C)C)n(C)n3)n2)c1` [Example 112, 1-methyl-3-{2-[(3-methylphenyl)amino]pyrimidin-4-yl}-N-[(2S)-3-methyl-1-(pyrrolidin-1-yl)butan-2-yl]-1H-pyrazole-5-carboxamide], for which the IC50 is 0.023 µM. Consider `Cn1nc(-c2ccnc(Nc3cc(F)cc(F)c3)n2)cc1C(=O)N[C@H]1CCCC[C@@H]1N` [Example 113, N-[(1S,2S)-2-aminocyclohexyl]-3-{2-[(3,5-difluorophenyl)amino]pyrimidin-4-yl}-1-methyl-1H-pyrazole-5-carboxamide], for which the IC50 turned out to be 0.061 µM.

Regarding `CN1CCN(c2ccc(Nc3nccc(-c4cc(C(=O)N[C@H]5CCCC[C@H]5O)n(C)n4)n3)cc2Cl)CC1` [Example 114, 3-(2-{[3-chloro-4-(4-methylpiperazin-1-yl)phenyl]amino}pyrimidin-4-yl)-N-[(1S,2R)-2-hydroxycyclohexyl]-1-methyl-1H-pyrazole-5-carboxamide], the IC50 worked out at 0.191 µM. Consider `Cc1cc(C)cc(Nc2nccc(-c3cc(C(=O)N[C@H]4CCCC[C@H]4O)n(C)n3)n2)c1` [Example 115, 3-{2-[(3,5-dimethylphenyl)amino]pyrimidin-4-yl}-N-[(1S,2R)-2-hydroxycyclohexyl]-1-methyl-1H-pyrazole-5-carboxamide], for which the IC50 was 0.023 µM. For the compound `Cn1nc(-c2ccnc(Nc3cc(Cl)cc(Cl)c3)n2)cc1C(=O)N[C@H]1CCCC[C@@H]1N` [Example 116, N-[(1S,2S)-2-aminocyclohexyl]-3-{2-[(3,5-dichlorophenyl)amino]pyrimidin-4-yl}-1-methyl-1H-pyrazole-5-carboxamide], the IC50 is 0.011 µM. Same read-out and setting: under `CC(C)[C@@H](CN1CCCC1)NC(=O)c1cc(-c2ccnc(Nc3cc(Cl)cc(Cl)c3)n2)nn1C` [Example 117, 3-{2-[(3,5-dichlorophenyl)amino]pyrimidin-4-yl}-1-methyl-N-[(2S)-3-methyl-1-(pyrrolidin-1-yl)butan-2-yl]-1H-pyrazole-5-carboxamide] stands 0.007 µM; under `Cc1cc(C)cc(Nc2nccc(-c3cc(C(=O)N[C@H]4CCCC[C@@H]4O)n(C)n3)n2)c1` [Example 118, 3-{2-[(3,5-dimethylphenyl)amino]pyrimidin-4-yl}-N-[(1S,2S)-2-hydroxycyclohexyl]-1-methyl-1H-pyrazole-5-carboxamide], 0.045 µM. On the same count and under the same terms, as for `CCn1nc(-c2ccnc(Nc3cc(C)cc(C)c3)n2)cc1C(=O)N[C@H]1CCCC[C@H]1O` [Example 120, 3-{2-[(3,5-dimethylphenyl)amino]pyrimidin-4-yl}-1-ethyl-N-[(1S,2R)-2-hydroxycyclohexyl]-1H-pyrazole-5-carboxamide], the figure is 0.027 µM; as for `CCn1nc(-c2ccnc(Nc3cc(C)cc(C)c3)n2)cc1C(=O)N[C@H]1CCCC[C@H]1N` [Example 121, N-[(1S,2R)-2-aminocyclohexyl]-3-{2-[(3,5-dimethylphenyl)amino]pyrimidin-4-yl}-1-ethyl-1H-pyrazole-5-carboxamide hydrochloride], 0.012 µM; as for `CCn1nc(-c2ccnc(Nc3cc(C)cc(C)c3)n2)cc1C(=O)N[C@@H]1CCCNC1` [Example 122, 3-{2-[(3,5-dimethylphenyl)amino]pyrimidin-4-yl}-1-ethyl-N-[(3R)-piperidin-3-yl]-1H-pyrazole-5-carboxamide hydrochloride], 0.06 µM.

The same test, now with this note: Table B; reference compounds of WO2012/139930, KinaseGlo format on Syk; read-out: IC50 (μM) Kglo.
Regarding `CCc1cccc(CC)c1NC(=O)c1cc(-c2ccnc(Nc3ccccc3OC)n2)n(C)n1` [compound 7, reference compound], the IC50 is above 10 µM.

For the compound `CCc1cccc(CC)c1NC(=O)c1cc(-c2ccnc(Nc3ccccc3OC)n2)[nH]n1` [compound 14, reference compound], the IC50 is above 10 µM. In the case of `CNC(=O)c1cc(-c2ccnc(N(C)C)n2)n(C(C)(C)C)n1` [compound 39, reference compound], the IC50 was above 10 µM.

Values taken from patent publication US20240285621A1, “PYRAZOLYL-PYRIMIDINE DERIVATIVES AS KINASE INHIBITORS” (NERVIANO MEDICAL SCIENCES S.R.L., priority 2020, published 2024).
